Measurements: ChEMBL document CHEMBL3301361, “Experimental in vitro DMPK and physicochemical data on a set of publicly disclosed compounds”

Legend:
in vitro [1] = conditions: hepatocytes
physchem = conditions: octan-1-ol/water
in vitro [2] = conditions: human

SMILES	hepatocyte CLint (in vitro [1]) [µL/min/1e6 cells]	logD (physchem; pH 7.4, LogD7.4)	microsomal CLint (in vitro [2]; microsomes) [µL/min/mg]	microsomal CLint (in vitro [2]; liver microsomes) [µL/min/mg]	logD (physchem; pH 7.4)
O=C(NCC12CC3CC(CC(C3)C1)C2)c1c(Cl)ccc2nc(N3CCC[C@H](NCCc4nnn[nH]4)C3)ccc12	13	3.08		15	
O=c1[nH]c2c(O)ccc([C@@H](O)CNCCSCCCNCCc3cccc(C(F)(F)F)c3)c2s1	6	1.21		13	
O=C(Nc1cccc(CCO)c1)c1cc2cc(Cl)ccc2[nH]1	> 150	3.83		10	
Cc1cccc2c(CCNCc3cccc(CCNC[C@H](O)c4ccc(O)c5[nH]c(=O)sc45)c3)c[nH]c12	24	1.13		16	
O=C(Nc1c[nH]nc1-c1nc2cc(CN3CCOCC3)ccc2[nH]1)NC1CC1 [AT-9283]	< 3	2.3		8.32	
CCc1c(C)nc(SCC(=O)Nc2nc(-c3ccc(OC)cc3)cs2)nc1O	66.1	3.78		66.1	
CCn1c(C)c(C(=O)O)c(-c2cccc(N3CCN(c4ccc(NS(=O)(=O)c5ccc(N[C@H](CCN6CCC(O)CC6)CSc6ccccc6)c(S(=O)(=O)C(F)(F)F)c5)cc4)CC3)c2)c1-c1ccc(Cl)cc1	17.4	4.2		15.1	
Cc1c2c(=O)n(-c3ccccc3Cl)[nH]c2cc(=O)n1Cc1ccccn1	< 3	0.2		< 3	
O=c1[nH]c2c(O)ccc([C@@H](O)CNCCc3cccc(CNCCCc4ccccc4)c3)c2s1	19	1.11		9	
CC1(C)[C@@H]2CC[C@@]1(CS(=O)(=O)N1CCN(c3ccc(C#N)cn3)CC1)C(=O)C2	> 150	2.46		103	
Nc1c(C(=O)c2cccc(OC[C@@H](O)CO)c2)cnn1-c1ccc(F)cc1 [RO-3201195]	< 3	1.91	< 3		
CCOC(=O)c1c(-c2ccccc2)nc2cc(C)ccn12	148		> 150		3.8
c1csc(Cn2nnnc2CN2CCN(c3nc4ccccc4s3)CC2)c1	> 150	3.65		99	
Cc1cc(C)nc(SCC(=O)Nc2cc(C)on2)n1	141	1.52		> 150	
COc1ccc(CC(=O)NC(NC(=NC#N)Nc2ccccc2C)C(C)(C)C)cc1OC (stereo unspecified)	26	2.48		> 150	
CC1Sc2c(C(=O)O)c(=O)c3cc(F)c(N4CCNCC4)cc3n21 (stereo unspecified) [ULIFLOXACIN]	< 3			13.8	
Cc1oc(=O)oc1CN1CCN(c2cc3c(cc2F)c(=O)c(C(=O)O)c2n3C(C)S2)CC1 (stereo unspecified) [PRULIFLOXACIN]	69.2	0.47		15.5	
COC(=O)C1=C(C)NC2=C(C(=O)CC(C)(C)C2)C1c1ccc(-c2ccc(C(F)(F)F)cc2)cc1 (stereo unspecified)	12.3			9.12	
O=C(c1cccc(Cl)c1Cl)N1CCN(c2ccccn2)CC1	> 150			> 150	
CS(=O)(=O)c1ccc(-c2cnc(N)c(C(=O)Nc3ccccc3)n2)cc1	19.1		4.17		
CC(C)S(=O)(=O)c1ccc(-c2cnc(N)c(C(=O)Nc3ccccc3)n2)cc1	20.9			10	
Nc1nnc(CCSCCc2nnc(NC(=O)Cc3ccccc3)s2)s1	72.4			55	
Cc1cccc(C[C@@H](C(=O)O)N2CCC(CN3CCC(Oc4ccc(Cl)c(Cl)c4)CC3)CC2)c1	< 3			< 3	
CCOc1ccc2oc(C(=O)NC(CCSC)c3nc4ncccc4[nH]3)c(C)c2c1 (stereo unspecified)	46			> 150	
CC(C)CNc1nc(N2CCN(CC3CCCOC3)CC2)ncc1C(=O)NCc1ccccc1 (stereo unspecified)	89.1			95.5	
O=C(Nc1cc(-c2ccnc(Nc3ccc(F)cc3)c2)ccn1)C1CCOCC1	> 150		6.03		
CN(CC(=O)N(Cc1ccc(C2CCCCC2)cc1)c1ccc(C(=O)O)c(O)c1)S(=O)(=O)c1c(F)c(F)c(F)c(F)c1F	74.1		129		
CCOC(=O)c1c(-c2ccccc2)nc2ccc(C)cn12	126		> 150		
O=C(NCCCCCCNCCc1ccc(O)c2nc(O)sc12)Nc1ccccc1	98			11	
CCOC(=O)CN(c1ccccc1C)S(=O)(=O)c1ccc(Cl)cc1	> 150			94	

More lines, now with the values ahead:

hepatocyte CLint (in vitro [1]) [µL/min/1e6 cells]	logD (physchem; pH 7.4, LogD7.4)	microsomal CLint (in vitro [2]; microsomes) [µL/min/mg]	microsomal CLint (in vitro [2]; liver microsomes) [µL/min/mg]	logD (physchem; pH 7.4)	SMILES
107	1.58	27.5			O=c1[nH]c2c(O)ccc([C@@H](O)CNCCc3ccccc3CNCCc3ccccc3F)c2s1
17.4	1.1		4.47		O=C(Nc1cccc(-c2nnn[nH]2)c1)c1cc(C(F)(F)F)cc2[nH]cnc12
56	0.65		72		CCC(CC)NC(=O)c1cnn(-c2ccccc2Cl)c1NS(=O)(=O)c1ccc(C)cc1
111	3.37		119		c1ccc(Nc2[nH]nnc2-c2ccccc2)cc1
> 150	2		120		CCN(CC)c1ccc2cc(C(C)=O)c(=O)oc2c1
13.8	3.5	64.6			COc1ccc(C(=O)NCc2cn(-c3cc(C)nc4ccc(OC)cc34)nn2)cc1
33	1.52		45		COc1ccccc1CN(C)Cc1cccc(CCNC[C@H](O)c2ccc(O)c3[nH]c(=O)sc23)c1
> 150	3.2	117			O=C(c1csc2c1CCCC2)N1CCCCC1
4	0.6	68			O=C(NCC12CC3CC(CC(C3)C1)C2)c1ccnc(NCC2CCNCC2)c1Cl
23	1.86	14			O=c1[nH]c2c(O)ccc([C@@H](O)CNCCOc3cccc(CNCCc4ccccc4F)c3)c2s1
46.8			83.2	3.7	O=C(C1CCN(c2nnc(-n3cccc3)s2)CC1)N1CCc2ccccc2C1
64.3	0.16		> 150		Cc1nc2ncnn2c(O)c1CCOC(=O)c1c(F)cccc1F
120	3.2		> 150		COc1ccc2nc(C)cc(OCC(=O)NCc3ccccc3)c2c1
57.5	2.8		> 150		Cc1cc2cc(C)c3nnc(SCC(=O)N4CCN(C(=O)c5ccco5)CC4)n3c2cc1C
13.5	3.63		14.4		Cc1cc(CCCOc2c(C)cc(-c3noc(C(F)(F)F)n3)cc2C)on1 [PLECONARIL]
5.5	3.3		33.1		O=C(Nc1ncc(F)s1)C(CC1CCOCC1)c1ccc(S(=O)(=O)C2CC2)cc1 (stereo unspecified)
> 150	2.5	> 150			COc1ccc(CNC(=O)CSc2nc3cccnc3s2)cc1
12.6	3.2		27.5		COc1cc2c(Nc3ccc(F)c(Cl)c3)c(C(N)=O)cnc2cc1OCCN(C)CCO
> 150	2.7		46.8		Cc1ccccc1NC(=O)CCS(=O)(=O)c1ccc(Br)s1

hepatocyte CLint (in vitro [1]) [µL/min/1e6 cells]	logD (physchem; pH 7.4, LogD7.4)	microsomal CLint (in vitro [2]; microsomes) [µL/min/mg]	microsomal CLint (in vitro [2]; liver microsomes) [µL/min/mg]	logD (physchem; pH 7.4)	SMILES
22.9			7.41		CCC(NC(=O)Nc1cc(Cl)ccc1Cl)(C(F)(F)F)C(F)(F)F
75.9		7.76			CCn1c(SCC(=O)Nc2cc(C)on2)nnc1-c1cccnc1
> 150			56		Oc1nc2c(O)ccc(CCNCCOCCCOCCc3ccccc3)c2s1
> 150		> 150			CCCCn1c(SCC(=O)Nc2cc(C)on2)nnc1-c1ccco1
> 150			> 150		COc1ccc(N(C(C)=O)C(C(=O)NC2CCCC2)c2ccccc2F)c(OC)c1 (stereo unspecified)
138			70.8		O=C(NCc1ccccc1)c1cc(-c2ccco2)on1
6.61		17.8			N#CC1(NC(=O)[C@@H]2CCCC[C@H]2C(=O)N2CCN(c3nc4ccncc4s3)CC2)CC1
50.1			> 150		Cc1ccc2c(NC[C@](O)(CC(C)(C)c3cc(F)cc4c3OCC4)C(F)(F)F)cccc2n1 [MAPRACORAT]
20		23			Cc1ccc(NC(=O)c2cccc(N3CCOCC3)c2)cc1NC(=O)c1ccc(OCc2cscn2)cc1
> 150		123			Cc1cc(OCC(=O)Nc2ccccc2)c2cc(Br)ccc2n1
> 150			> 150		COc1ccc(N(C(=O)c2ccco2)C(C(=O)NC2CCCC2)c2ccccc2F)c(OC)c1 (stereo unspecified)
> 150			> 150		C[C@@H](O)[C@H]1C(=O)N2C(C(=O)OCOC(=O)C(C)(C)C)=C(SC3CN(C4=NCCS4)C3)[C@H](C)[C@H]12 [TEBIPENEM PIVOXIL]
22.8			49		O=C(NCc1ccccc1)c1ccc2cccnc2c1O
5.25		6.76			N#Cc1cnc(N2CCN(C(=O)[C@@H]3CCCC[C@H]3C(=O)NC3(C#N)CC3)CC2)s1
51.3		126			Cc1cc(OCC(=O)NCc2ccccc2)c2cc(Br)ccc2n1
< 3			< 3		O=C(O)Cc1ccccc1N1CCC(CN2CCC(Oc3ccc(Cl)c(Cl)c3)CC2)CC1
63.1			6.31		C[C@@H]1CN(c2ccc(F)cc2C(F)(F)F)CCN1S(=O)(=O)c1ccc(C(N)=O)cc1Cl
8.51		< 3			Cc1cc(NS(=O)(=O)c2ccc(Cl)cc2)no1
12			11		O=c1[nH]c2c(O)ccc([C@@H](O)CNCCCSCCNCCc3ccccc3Cl)c2s1
